Read-outs that look alike come from different tables or passages of the source.
Experiments:
[1] = test system: HIV-1 laboratory viral strain NL4.3 (wild type virus); experiment: Anti-viral assay in vitro (MTT, infected MT-4 cells); type: cell-based; conditions: Human immunodeficiency virus 1, MT4, 144 h
Method: Anti-viral and Cytotoxicity Assays In Vitro
To evaluate the EC50 of our compounds, various drug concentrations are incubated with the infected cell for six days and then the metabolic activity of the cells is monitored by the MTT assay. (See A. J. Japour et al, Antimicrobial Agents and Chemotherapy, 37, 1095-1101, 1993 and R. Pauwels et al. Journal of Virological Methods, 20, 309-321, 1988)
We use the laboratory viral strain NL4.3 as wild type virus and the cell line used is MT-4 which is a T-cell line highly sensitive to HIV-1. We also use some WT clinical strains. To address the resistance issue we assay the inhibitors with NL4.3 mutants which are designed to be resistant to specific commercially,available inhibitors

[2] = biological target: HIV protease (Human immunodeficiency virus type 1 group M subtype B, UniProt P04585); experiment: biochemical
Description: Enzymatic Assay for Determining the Inhibition Constant (Ki) of Synthetic Compounds Targeting the HIV Protease
This is a fluorometric assay based on the cleavage by protease of a substrate carrying a donor group (EDANS) and an acceptor group (DABCYL) on each side of the cleavage site, interacting together through fluorescence resonance energy transfer (FRET) as described by Matayoshi et al. (Science 247:954-954, 1990).
After calculation of Vo and Vi, the inhibition constant (Ki) of the compound is determined using the equation of Henderson: [formula]
where Vo=the enzyme's initial velocity
Vi=the enzyme velocity in the presence of the inhibitory compound,
[I]=inhibitor concentration, [S]=substrate concentration,
Km=Michaelis-Menten constant and Kiapp=apparent Ki
Graphs are traced and the Ki determined using GraphPad Prism software v.

[3] = MT-4 cells infected with NL4.3, six days, MTT assay, read-out: EC50

| SMILES | EC50 [1, 3] [nM] | Ki [2] [nM] | EC50 [1] [nM] |
| --- | --- | --- | --- |
| COC(=O)C(=O)N[C@@H](Cc1cccc2ccccc12)C(=O)NCCC[C@@H](CO)N(CC(C)C)S(=O)(=O)c1ccc(N)cc1 [Example 11, (1S,4S)-N-(1-{4-[(4-Amino-benzenesulfonyl)-isobutyl-amino]-5-hydroxy-pentylcarbamoyl}-2-naphthalen-1-yl-ethyl)-oxalamic Acid Methyl Ester] | 64000 | 5 | – |
| COC(=O)N[C@H](C(=O)NCCCC[C@@H](CO)N(CC(C)C)S(=O)(=O)c1ccc(N)cc1)C(c1ccccc1)c1ccccc1 [Example 34, (1S,5S)-(1-{5-[(4-Amino-benzenesulfonyl)-isobutyl-amino]-6-hydroxy-hexylcarbamoyl}-2,2-diphenyl-ethyl)-carbamic Acid Methyl Ester] | 12 | 0.5 | – |
| COC(=O)N[C@@H](Cc1ccccc1-c1ccccc1)C(=O)NCCCC[C@@H](CO)N(CC(C)C)S(=O)(=O)c1ccc(N)cc1 [Example 39, (1S,5S)-(1-{5-[(4-Amino-benzenesulfonyl)-isobutyl-amino]-6-hydroxy-hexylcarbamoyl}-2-biphenyl-2-yl-ethyl)-carbamic Acid Methyl Ester] | 200 | 0.521 | – |
| CC(C)CN(C(CO)CCCCNC(=O)C(Cc1ccc2ccccc2c1)NC(=O)C1CCOC1)S(=O)(=O)c1ccc(N)cc1 [Example 37, (1S,3R,S,5S)-Tetrahydro-furan-3-carboxylic Acid (1-{5-[(4-Amino-benzenesulfonyl)-isobutyl-amino]-6-hydroxy-hexylcarbamoyl}-2-naphthalen-2-yl-ethyl)-amide] | 325 | 2.7 | – |
| COC(=O)N[C@H](C(=O)NCCCC[C@@H](CO)N(CC(C)C)S(=O)(=O)c1ccc(F)c(N)c1)C(c1ccccc1)c1ccccc1 [Example 58, (1S,5S)-(1-{5-[(3-Amino-4-fluoro-benzenesulfonyl)-isobutyl-amino]-6-hydroxy-hexylcarbamoyl}-2,2-diphenyl-ethyl)-carbamic Acid Methyl Ester] | 25 | 0.65 | – |
| CC(C)CN(C(CO)CCCCNC(=O)C(NC(=O)C1CCOC1)C(c1ccccc1)c1ccccc1)S(=O)(=O)c1ccc(N)cc1 [Example 77, (1S,3R,S,5S)-Tetrahydro-furan-3-carboxylic Acid (1-{5-[(4-Amino-benzenesulfonyl)-isobutyl-amino]-6-hydroxy-hexylcarbamoyl}-2,2-diphenyl-ethyl)-amide] | 68 | 0.581 | – |
| CC(=O)N[C@H](C(=O)NCCCC[C@@H](CO)N(CC(C)C)S(=O)(=O)c1ccc(N)cc1)C(c1ccccc1)c1ccccc1 [Example 71, (2S,5S)-2-Acetylamino-N-{5-[(4-amino-benzenesulfonyl)-isobutyl-amino]-6-hydroxy-hexyl}-3,3-diphenyl-propionamide] | 66 | 1.5 | – |
| CC(=O)N[C@@H](Cc1ccc2ccccc2c1)C(=O)NCCCC[C@@H](CO)N(CC(C)C)S(=O)(=O)c1ccc(N)cc1 [Example 48, (2S,5S)-2-Acetylamino-N-{5-[(4-amino-benzenesulfonyl)-isobutyl-amino]-6-hydroxy-hexyl}-3-naphthalen-2-yl-propionamide] | 948 | 3.6 | – |
| COC(=O)N[C@H](C(=O)NCCCC[C@@H](CO)N(CC(C)C)S(=O)(=O)c1ccc(F)cc1F)C(c1ccccc1)c1ccccc1 [Example 80, (1S,5S)-(1-{5-[(2,4-Difluoro-benzenesulfonyl)-isobutyl-amino]-6-hydroxy-hexylcarbamoyl}-2,2-diphenyl-ethyl)-carbamic Acid Methyl Ester] | 48 | < 3.8 | – |
| COc1ccc(-c2ccccc2C[C@H](NC(=O)N2CCOCC2)C(=O)NCCCC[C@@H](CO)N(CC(C)C)S(=O)(=O)c2ccc(N)cc2)cc1 [Example 38, (1S,5S)-Morpholine-4-carboxylic Acid [1-{5-[(4-Amino-benzenesulfonyl)-isobutyl-amino]-6-hydroxy-hexylcarbamoyl}-2-(4′-methoxy-biphenyl-2-yl)-ethyl]-amide] | 93 | 0.533 | – |
| CC(C)CN([C@H](CO)CCCCNC(=O)[C@H](Cc1ccccc1-c1ccccc1)NC(=O)N1CCOCC1)S(=O)(=O)c1ccc(N)cc1 [Example 43, (1S,5S)-Morpholine-4-carboxylic Acid (1-{5-[(4-Amino-benzenesulfonyl)-isobutyl-amino]-6-hydroxy-hexylcarbamoyl}-2-biphenyl-2-yl-ethyl)-amide] | 697 | 0.598 | – |
| CC(C)CN([C@H](CO)CCCCNC(=O)[C@@H](NC(=O)c1ccncc1)C(c1ccccc1)c1ccccc1)S(=O)(=O)c1ccc(N)cc1 [Example 74, (1S,5S)-N-(1-{5-[(4-Amino-benzenesulfonyl)-isobutyl-amino]-6-hydroxy-hexylcarbamoyl}-2,2-diphenyl-ethyl)-isonicotinamide] | 32 | 0.647 | – |
| CC(C)CN([C@H](CO)CCCCNC(=O)[C@@H](NC(=O)C1CC1)C(c1ccccc1)c1ccccc1)S(=O)(=O)c1ccc(N)cc1 [Example 75, (1S,5S)-Cyclopropanecarboxylic Acid (1-{5-[(4-Amino-benzenesulfonyl)-isobutyl-amino]-6-hydroxy-hexylcarbamoyl}-2,2-diphenyl-ethyl)-amide] | 25 | < 3.8 | – |
| CC(C)CN([C@H](CO)CCCCNC(=O)[C@H](Cc1ccc2ccccc2c1)NC(=O)c1cccnc1)S(=O)(=O)c1ccc(N)cc1 [Example 54, (1S,5S)-N-(1-{5-[(4-Amino-benzenesulfonyl)-isobutyl-amino]-6-hydroxy-hexylcarbamoyl}-2-naphthalen-2-yl-ethyl)-nicotinanide] | 146 | 1.4 | – |
| COC(=O)N[C@@H](Cc1cccc2ccccc12)C(=O)NCCC[C@@H](CO)N(CC(C)C)S(=O)(=O)c1ccc(N)cc1 [Example 2, (1S,4S)-(1-{4-[(4-Amino-benzenesulfonyl)-isobutyl-amino]-5-hydroxy-pentylcarbamoyl}-2-naphthalen-1-yl-ethyl)-carbamic Acid Methyl Ester] | 674 | 2.8 | – |
| COC(=O)N[C@@H](Cc1ccccc1-c1cccc(F)c1)C(=O)NCCCC[C@@H](CO)N(CC(C)C)S(=O)(=O)c1ccc(F)c(N)c1 [Example 56, (1S,5S)-[1-{5-[(3-Amino-4-fluoro-benzenesulfonyl)-isobutyl-amino]-6-hydroxy-hexylcarbamoyl}-2-(3′-fluoro-biphenyl-2-yl)-ethyl]-carbamic Acid Methyl Ester] | 300 | 1.3 | – |
| COC(=O)N[C@H](C(=O)NCCCC[C@@H](CO)N(CC(C)C)S(=O)(=O)c1ccc(C#N)cc1)C(c1ccccc1)c1ccccc1 [Example 79] | 65 | < 3.8 | – |
| COC(=O)N[C@@H](Cc1ccccc1-c1cccc(F)c1)C(=O)NCCCC[C@@H](CO)N(CC(C)C)S(=O)(=O)c1ccc(N)cc1 [Example 52, (1S,5S)-[1-{5-[(4-Amino-benzenesulfonyl)-isobutyl-amino]-6-hydroxy-hexylcarbamoyl}-2-(3′-fluoro-biphenyl-2-yl)-ethyl]-carbamic Acid Methyl Ester] | 152 | 0.7 | – |
| CC(C)CN([C@H](CO)CCCCNC(=O)[C@H](Cc1ccc2ccccc2c1)NC(=O)N1CCOCC1)S(=O)(=O)c1ccc(N)c(Cl)c1 [Example 51, (1S,5S)-Morpholine-4-carboxylic Acid (1-{5-[(4-Amino-3-chloro-benzenesulfonyl)-isobutyl-amino]-6-hydroxy-hexylcarbamoyl}-2-naphthalen-2-yl-ethyl)-amide] | 194 | 0.8 | – |
| CC(C)CN([C@H](CO)CCCCNC(=O)[C@H](Cc1cccc2ccccc12)NC(=O)N1CCOCC1)S(=O)(=O)c1ccc(N)cc1 [Example 32, (1S,5S)-Morpholine-4-carboxylic Acid (1-{5-[(4-Amino-benzenesulfonyl)-isobutyl-amino]-6-hydroxy-hexylcarbamoyl}-2-naphthalen-1-yl-ethyl)-amide] | 30 | 0.782 | – |
| COC(=O)N[C@@H](Cc1ccccc1-c1ccc(OC)cc1)C(=O)NCCCC[C@@H](CO)N(CC(C)C)S(=O)(=O)c1ccc(OC)cc1 [Example 36, (1S,5S)-[1-{6-Hydroxy-5-[isobutyl-(4-methoxy-benzenesulfonyl)-amino]-hexylcarbamoyl}-2-(4′-methoxy-biphenyl-2-yl)-ethyl]-carbamic Acid Methyl Ester] | – | 3.2 | 2180 |
| CC(C)CN([C@H](CO)CCCNC(=O)[C@H](Cc1cccc2ccccc12)NC(=O)N1CCOCC1)S(=O)(=O)c1ccc(N)cc1 [Example 4, (1S,4S)-Morpholine-4-carboxylic Acid (1-{4-[(4-Amino-benzenesulfonyl)-isobutyl-amino]-5-hydroxy-pentylcarbamoyl}-2-naphthalen-1-yl-ethyl)-amide] | 728 | 1.4 | – |
| COC(=O)N[C@H](C(=O)NCCC[C@@H](CO)N(CC(C)C)S(=O)(=O)c1ccc(N)cc1)C(c1ccccc1)c1ccccc1 [Example 10, (1S,4S)-(1-{4-[(4-Amino-benzenesulfonyl)-isobutyl-amino]-5-hydroxy-pentylcarbamoyl}-2,2-diphenyl-ethyl)-carbamic Acid Methyl Ester] | 514 | 5 | – |
| COC(=O)N[C@H](C(=O)NCCCC[C@@H](CO)N(CC(C)C)S(=O)(=O)c1ccc(N)c(Cl)c1)C(c1ccccc1)c1ccccc1 [Example 50, (1S,5S)-(1-{5-[(4-Amino-3-chloro-benzenesulfonyl)-isobutyl-amino]-6-hydroxy-hexylcarbamoyl}-2,2-diphenyl-ethyl)-carbamic Acid Methyl Ester] | 95 | 0.776 | – |

— patent publication US6632816B1, “Aromatic derivatives as HIV aspartyl protease inhibitors” (Pharmacor Inc., priority 2002, dated 2003)
